Some test systems named below: BT-549 breast; SF-268 CNS; UACC-257 melanoma; RXF 393 renal; SK-MEL-5 melanoma; NCI-H226 lung; OVCAR-5 ovarian; HCT-15 colon; HOP-62 NSCLC; SF-539 CNS.
What all share (assay): inhibition of tumour cell growth, NCI panel, 48 h

Each structure is given as a SMILES string.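 Following 48 hours of exposure in 96-well plates, responses at five concentrations were used to interpolate endpoints linearly. Abbreviation: GI50, concentration required for 50% inhibition of growth. The concentration for full growth arrest is given as TGI.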

With `CN1C(=O)N/C(=C\c2ccc(S(=O)(=O)NN)cc2)C1=O`, the TGI in the test with BT-549 breast, in the test on SF-268 CNS, in the test on UACC-257 melanoma, in the test on RXF 393 renal, in the test on SK-MEL-5 melanoma and in the test with NCI-H226 lung was above 100 µM in each case. The TGI in the test on OVCAR-5 ovarian, with HCT-15 colon and with HOP-62 NSCLC was above 100 µM throughout.
Take `COc1ccc(C2CC(c3cccc(Nc4ccncc4)c3)=NN2c2cc(Cl)cc(Cl)c2)cc1` (stereo not given): the GI50 in the test on BT-549 breast is 5.57 µM; with SF-268 CNS, 2.2 µM; in the test on UACC-257 melanoma it was 2.16 µM; in the test with SF-539 CNS, 1.68 µM; in the test on SK-MEL-5 melanoma it was 1.81 µM; with NCI-H226 lung, 10.7 µM. The GI50 with OVCAR-5 ovarian was 2.23 µM; in the test on HCT-15 colon it was 1.7 µM; in the test with HOP-62 NSCLC, 2.08 µM. In addition, the TGI in the test with BT-549 breast was determined as 24.8 µM; with SF-268 CNS, 5.62 µM; with UACC-257 melanoma it was 4.92 µM; in the test on SF-539 CNS, 3.14 µM; in the test with SK-MEL-5 melanoma, 3.28 µM; with NCI-H226 lung, 30.7 µM. The TGI in the test on OVCAR-5 ovarian turned out to be 5.19 µM; in the test on HCT-15 colon, 3.26 µM; in the test with HOP-62 NSCLC it was 4.66 µM.
For the molecule `Cc1nc2ccccc2c(=O)n1NC(=O)c1ccc(CS)cc1`, the TGI with BT-549 breast was 46.3 µM; with SF-268 CNS it was 52 µM; in the test with UACC-257 melanoma it was above 100 µM; in the test with SF-539 CNS it was 26.6 µM; in the test on SK-MEL-5 melanoma it was 29.2 µM; with NCI-H226 lung, 14.2 µM. In addition, the TGI was 83.9 µM in the test on OVCAR-5 ovarian, above 100 µM in the test on HCT-15 colon and 42.4 µM with HOP-62 NSCLC.
Consider `CC1CC(N)=Nc2ccccc2N1` (stereo not given), for which the TGI with BT-549 breast, in the test with SF-268 CNS, with UACC-257 melanoma, in the test on RXF 393 renal, with SK-MEL-5 melanoma and in the test on NCI-H226 lung was above 100 µM throughout. Moreover, the TGI in the test on OVCAR-5 ovarian, in the test with HCT-15 colon and in the test on HOP-62 NSCLC was above 100 µM throughout.
In the case of `O=C(O)/C=N\Nc1nc2ccccc2[nH]1`, the TGI in the test with BT-549 breast, in the test with SF-268 CNS, in the test on UACC-257 melanoma, in the test on SF-539 CNS, in the test with SK-MEL-5 melanoma and in the test on NCI-H226 lung was above 100 µM throughout. Also, the TGI in the test with OVCAR-5 ovarian, with HCT-15 colon and with HOP-62 NSCLC was above 100 µM in each case.
As to `Cc1nc(N)sc1-c1ccnc(Nc2ccc(N3CCOCC3)cc2)n1`, the GI50 in the test with BT-549 breast is 1.56 µM; in the test with SF-268 CNS, 1.54 µM; with RXF 393 renal, 0.938 µM; in the test with SK-MEL-5 melanoma, 5.05 µM; in the test with HCT-15 colon it was 0.991 µM; in the test on HOP-62 NSCLC, 1.87 µM. For the same molecule, the TGI with BT-549 breast is above 100 µM; with SF-268 CNS it was 50.7 µM; in the test on UACC-257 melanoma, above 100 µM; in the test on RXF 393 renal, 2.78 µM; in the test with SK-MEL-5 melanoma it was above 100 µM; with HCT-15 colon, above 100 µM. In the test with HOP-62 NSCLC, the TGI worked out at 60.3 µM.
On to `O=c1[nH]c(-c2ccc3ccccc3c2)nc2ccccc12`, for which the TGI with BT-549 breast, in the test with SF-268 CNS, in the test with UACC-257 melanoma, in the test on RXF 393 renal, in the test on SK-MEL-5 melanoma and in the test with NCI-H226 lung was above 100 µM in each case. The TGI was above 100 µM with OVCAR-5 ovarian, above 100 µM in the test with HCT-15 colon and 50.2 µM with HOP-62 NSCLC.
`C=C1C[C@@H]2O[C@H]3[C@H]4[C@@H](C[C@@H](C)[C@@H](OC(C)=O)[C@H]42)[C@@H](C)CO[C@@]3(C)[C@H](OC(C)=O)C[C@H]1O`: the TGI with BT-549 breast, in the test on SF-268 CNS, with UACC-257 melanoma, in the test on SF-539 CNS, in the test with RXF 393 renal and in the test on SK-MEL-5 melanoma was above 100 µM throughout. Moreover, the TGI in the test with NCI-H226 lung, with OVCAR-5 ovarian and with HCT-15 colon was above 100 µM throughout.
`Cc1ccc(/C=N/n2c(=O)[nH]c3ccccc3c2=O)cc1`: the TGI in the test with BT-549 breast, with SF-268 CNS, with UACC-257 melanoma, in the test on SF-539 CNS, in the test on SK-MEL-5 melanoma and with NCI-H226 lung was above 100 µM throughout. The TGI in the test on OVCAR-5 ovarian, in the test with HCT-15 colon and in the test on HOP-62 NSCLC was above 100 µM each time.
With `S=C(NCc1ccccc1)c1nc[nH]c1C(=S)NCc1ccccc1`, the TGI is 27.2 µM with BT-549 breast; 19.8 µM in the test on SF-268 CNS; 23.4 µM in the test on UACC-257 melanoma; 23.2 µM in the test on SF-539 CNS; 24.9 µM in the test with RXF 393 renal; 8.1 µM with NCI-H226 lung. The results for the TGI in the test on OVCAR-5 ovarian, with HCT-15 colon and in the test on HOP-62 NSCLC were 21.7 µM, 33.6 µM and 26.2 µM, respectively.
Take `CNc1ccc(OC)cc1S(=O)(=O)c1ccccc1[N+](=O)[O-]`: the TGI in the test on BT-549 breast, with SF-268 CNS, in the test on SF-539 CNS, with RXF 393 renal, in the test on SK-MEL-5 melanoma and with NCI-H226 lung was above 100 µM in each case. Also, the TGI with OVCAR-5 ovarian, with HCT-15 colon and in the test on HOP-62 NSCLC was above 100 µM each time.
Turning to `NC(N)=NCCN=C(N)N`, the TGI in the test on BT-549 breast, in the test on SF-268 CNS, in the test on UACC-257 melanoma, with SF-539 CNS, in the test with RXF 393 renal and in the test with SK-MEL-5 melanoma was above 100 µM in each case. For the same molecule, the TGI in the test on OVCAR-5 ovarian, with HCT-15 colon and in the test with HOP-62 NSCLC was above 100 µM in each case.
On to `CC(=O)Nc1cc(C(=O)Nc2cc(C(=O)N3CC(CCl)c4c3cc(N)c3ccccc43)nn2C)nn1C` (stereo not given), for which the TGI worked out at 0.883 µM in the test with BT-549 breast; 0.128 µM in the test on SF-268 CNS; 2.09 µM with UACC-257 melanoma; 0.0549 µM in the test on SF-539 CNS; 0.226 µM with RXF 393 renal; 1.23 µM in the test on SK-MEL-5 melanoma. Also, the TGI in the test with OVCAR-5 ovarian is 17.3 µM; in the test on HCT-15 colon, 3.22 µM; with HOP-62 NSCLC, above 100 µM.

The record behind these values is PubChem BioAssay (NCI).
